# Measured values taken from patent publication US20160038519A1, “ADMINISTRATION OF KARENITECIN FOR THE TREATMENT OF ADVANCED OVARIAN CANCER, INCLUDING CHEMOTHERAPY-RESISTANT AND/OR THE MUCINOUS ADENOCARCINOMA SUB-TYPES” (BioNumerik Pharmaceuticals, Inc., priority 2014, published 2016).
# Where two headings read alike, the source gives them in different places.
# Tests used:
# [1] = Lactone stability in humans; type: in vivo, human
# [2] = tested on: stage III/IV advanced epithelial ovarian cancer resistant or refractory to platinum- and taxane-based regimens; details: for CA-125 marker level, low: after reduction; for CA-125 marker level, high: before reduction
# Description: Such Phase III clinical trial is sometimes referred to herein as the “Karenitecin Phase III Trial”.
# The Primary Endpoint of the disclosed Karenitecin Phase III Trial was Progression Free Survival (“PFS”); which was defined as the time period from the date of randomization to the date of first radiographically-documented Progressive Disease (“PD”) or date of death due to any cause, taking the event date that occurs first. The date of PD was determined by radiographical objective disease (RECIST) measurement. The Secondary Endpoints of the disclosed Karenitecin Phase III Trial included: (i) Overall Survival (hereinafter “OS”), defined as the time from the date of randomization to the date of death due to any cause; (ii) Incidence of anemia, defined as the proportion of subjects who experience ≧grade 3 anemia based on National Cancer Institute Common Terminology Criteria for Adverse Events (NCI-CTCAE) criteria at any time post-baseline after receiving study treatment; (iii) Incidence of neutropenia (including febrile neutropenia), defined as the proportion of subjects who experience ≧grade 3 neutropenia based on NCI-CTCAE criteria at any time post-baseline after receiving study treatment; and (iv) Incidence of thrombocytopenia, defined as the proportion of subjects who experience ≧grade 3 thrombocytopenia based on NCI-CTCAE criteria at any time post-baseline after receiving study treatment.
# Approximately 80 study centers participated in this clinical study. The primary endpoint was Progression Free Survival (PFS); defined as the time period from the date of randomization to the date of first radiographically documented progressive disease or disease progression (“PD”) or date of death due to any cause, taking the event date that occurs first.
# The primary endpoint was Progression Free Survival (PFS); defined as the time period from the date of randomization to the date of first radiographically documented progressive disease (PD) or date of death due to any cause, taking the event date that occurs first. The date of PD was determined by radiographically objective disease (RECIST) measurement.
# • Overall Survival (OS), defined as the time from the date of randomization to the date of death due to any cause. • Incidence of anemia, defined as the proportion of subjects who experience ≧grade 3 anemia based on National Cancer Institute Common Terminology Criteria for Adverse Events (NCI-CTCAE) criteria at any time post-baseline after receiving study treatment. • Incidence of neutropenia (including febrile neutropenia), defined as the proportion of subjects who experience ≧grade 3 neutropenia based on NCI-CTCAE criteria at any time post-baseline after receiving study treatment. • Incidence of thrombocytopenia, defined as the proportion of subjects who experience ≧grade 3 thrombocytopenia based on NCI-CTCAE criteria at any time post-baseline after receiving study treatment.
# During this period, subjects received either Karenitecin (1.0 mg/m^2/day administered as a 60-minute intravenous infusion) or Topotecan (1.5 mg/m^2/day administered as a 30-minute intravenous infusion) daily for 5 consecutive days, every 21 days (one treatment cycle=21 days).
# advanced ovarian cancer = test: Phase II study in advanced ovarian cancer after failed prior treatments; type: in vivo, human
# [3] = tested on: panel of over twenty (20) human cancer cell lines; test: In vitro studies on a panel of over twenty human cancer cell lines; type: cell-based
# [4] = Adenocarcinoma (grade ≧2) not otherwise specified, P-value=0.3700
# [5] = ECOG Performance Status 0, P-value=0.0249
# [6] = ECOG Performance Status 2, P-value=0.7481
# [7] = FIGO Stage IIIB, P-value=0.6225
# [8] = FIGO Stage IV, first 254 PFS events, P-value=0.0260
# [9] = Histological Stage: G1-well differentiated, P-value=0.8561
# [10] = Histological Stage: G2-moderately differentiated, P-value=0.2982
# [11] = Histopathology class: serous adenocarcinoma, P-value=0.2829
# [12] = Mucinous adenocarcinoma subtype
# [13] = Ovary as primary site of disease, P-value=0.2606
# [14] = overall trial population, P-value=0.261
compound,measurement,setting,value
"CC[C@@]1(O)C(=O)OCc2c1cc1n(c2=O)Cc2c-1nc1ccccc1c2CC[Si](C)(C)C [Karenitecin, (4S)-4-ethyl-4-hydroxy-11-[2-(trimethylsilyl)ethyl]-1H-pyrano[3′:4′:6,7]indolizino[1,2-b]quinoline-3,14(4H,12H)-dione]",Lactone stability,[1],approximately 85%
same,Overall survival hazard ratio,"[2]; Adenocarcinoma (grade ≧2) not otherwise specified, P-value 0.7893",0.898
same,Median PFS advantage in favor of Karenitecin,[2]; [4],2.7 month
same,PFS Hazard Ratio,[2]; [4],0.684
same,PFS Hazard Ratio,"[2]; Best response SD after 6 cycles in a first-line setting, P-value=0.9908",0.992
same,Median PFS advantage in favor of Karenitecin,"[2]; Best response stable disease (SD) after 6 cycles in a first-line setting, P-value=0.9908",3 month
same,Median PFS advantage in favor of Karenitecin,[2]; [5],3.9 month
same,PFS Hazard Ratio,[2]; [5],0.662
same,Median PFS advantage in favor of Karenitecin,[2]; [6],1.5 month
same,PFS Hazard Ratio,[2]; [6],0.896
same,Median PFS advantage in favor of Karenitecin,[2]; [7],4.2 month
same,PFS Hazard Ratio,[2]; [7],0.722
same,Overall survival hazard ratio,"[2]; FIGO Stage IV, P-value 0.4516",0.892
same,Median PFS advantage in favor of Karenitecin,"[2]; FIGO Stage IV, P-value=0.0556",2.7 month
same,PFS Hazard Ratio,"[2]; FIGO Stage IV, P-value=0.0556",0.741
same,Median PFS advantage in favor of Karenitecin,[2]; [8],2.8 month
same,PFS Hazard Ratio,[2]; [8],0.669
same,Overall survival hazard ratio,"[2]; Histological Stage: G1-well differentiated, P-value 0.9612",0.9674
same,Median PFS advantage in favor of Karenitecin,[2]; [9],1.7 week
same,PFS Hazard Ratio,[2]; [9],0.904
same,Median PFS advantage in favor of Karenitecin,[2]; [10],2.5 month
same,PFS Hazard Ratio,[2]; [10],0.835
same,Overall survival hazard ratio,"[2]; Histopathology Class: Undifferentiated carcinoma, P-value 0.6426",0.701
same,Median PFS advantage in favor of Karenitecin (as compared with Topotecan),[2]; Histopathology class: Mucinous adenocarcinoma,2 month
same,Median PFS advantage in favor of Karenitecin,[2]; [11],1.6 month
same,PFS Hazard Ratio,[2]; [11],0.873
same,Median PFS,[2]; [12],approximately 17.8 weeks
same,"Overall survival (OS), third quartile",[2]; [12],35 months
same,Overall survival hazard ratio (Karenitecin vs Topotecan),"[2]; Mucinous adenocarcinoma subtype, P-value 0.7321",0.841
same,Median PFS advantage in favor of Karenitecin,[2]; [13],6.5 week
same,PFS Hazard Ratio,[2]; [13],0.885
same,"CA-125 marker level, low",[2]; another patient,24 U/ML
same,"CA-125 marker level, high",[2]; another patient,237 U/ML
same,Reduction of grade 4 neutropenia in comparison to the Topotecan arm,"[2]; female, human, in vivo",38.2%
same,Reduction of number of grade 3 or 4 anemia events in comparison to the Topotecan arm,"[2]; female, human, in vivo",27.3%
same,Reduction of number of grade 3 or 4 thrombocytopenia events in comparison to the Topotecan arm,"[2]; female, human, in vivo",37.4%
same,Safety concerns noted by the independent DSMB,[2]; in vivo,no safety concerns
same,"CA-125 marker level, high",[2]; one patient,2072 U/ML
same,Median PFS,"[2]; overall trial population, IRC-determined",approximately 24.3 weeks
same,Median PFS advantage in favor of Karenitecin (as compared with Topotecan),[2]; [14],greater than 6 week
same,PFS Hazard Ratio (Karenitecin vs Topotecan),[2]; [14],0.885
same,Median PFS,[2]; refractory or resistant and/or mucinous subpopulation,approximately 26.9 weeks
same,PFS Hazard Ratio (Karenitecin vs Topotecan),"[2]; refractory or resistant and/or mucinous subpopulation, first 254 subjects, P-value=0.0849",0.770
same,Median PFS in favor of Karenitecin (as compared with Topotecan),"[2]; refractory or resistant to platinum/taxane and/or mucinous sub-type subpopulation, first 254 subjects, P-value=0.0849",approximately 8.2 weeks
same,PFS Hazard Ratio,"[2]; resistant subject sub-population, P-value=0.144",0.822
same,"CA-125 marker level, low",[2]; same patient,167 U/ML
same,Time to Progression (TTP) compared with historical results reported with Topotecan,advanced ovarian cancer,prolonged
same,Antitumor potency compared with Topotecan or SN-38,[3],significantly more potent
